From US4659717A, “Dihydropyridines useful in the treatment of angina and stroke” (Eli Lilly and Company, priority 1985, dated 1987)

Tested on: Dog Coronary Artery
Assay: Dog coronary artery test: relaxation of KCl-contracted coronary artery rings
Format: cell-based
Conditions: Canis lupus familiaris, coronary artery rings contracted with 50 mM KCl, 37° C.; IC50 = 50% relaxation; mean values, probit analysis
Method: Mongrel dogs of either sex and weighing 15 to 30 kg were anesthetized with pentobarbital (35 mg/kg). Each heart was quickly removed through a right thoracotomy and placed in Kreb's bicarbonate solution of the following composition (mM/L): NaCl, 118.2; KCl, 4.6; CaCl2.2H2 O, 1.6; KH2 PO4, 1.2; MgSO4.7H2 O, 1.2; NaHCO3, 24.8; and dextrose, 10.0. The medium was kept at room temperature and saturated with 95% O2 /5% CO2. The left anterior descending and circumflex coronary arteries were isolated and used either immediately or stored overnight at 5° C. Arteries were cut into rings approximately 2 to 3 mm wide, placed on 2 L-shaped hooks and mounted in a 10 ml organ bath by attaching one hook to a stationary glass rod and the other hook to a force-displacement transducer. Tissue medium consisted of Kreb's bicarbonate solution maintained at 37° C. and bubbled with 95 % O2 /5% CO2. Artery rings were equilibrated for 1-2 hours under a resting tension of 3 g. Tissue medium was then changed to one containing 50 mM KCl and 72.8 mM NaCl but otherwise identical to Kreb's bicarbonate solution. After tissues achieved a steady state contractile tension (1-2 hours) a given test agent was added to each bath and concentration-response curves determined. […] At the end of the concentration-response curve, tissue medium was changed to one identical to the 50 mM KCl buffer but containing 2.5 mM EGTA and no CaCl2.2H2 O to obtain complete relaxation of the tissue. Percent relaxation was then determined for each concentration and values producing 50% relaxation (IC50) were estimated using a probit analysis.

CCCOC(=O)C1=C(C)NC(C)=C(C(=O)OCCC)C1c1csc2ccncc12 [Example 10, 1,4-Dihydro-2,6-dimethyl-4-thieno[3,2-c]pyridin-3-yl-3,5-pyridinedicarboxylic acid, dipropyl ester] was tested. Which IC50 did it give?
The IC50 was 251 nM.

Which IC50 does the source give for CCOC(=O)C1=C(C)NC(C)=C(C(=O)OCC)C1c1csc2c([N+](=O)[O-])cccc12 [Example 25, 1,4-Dihydro-2,6-dimethyl-4-(7-nitrobenzo[b]thien-3-yl)-3,5-pyridinedicarboxylic acid, diethyl ester] here?
The IC50 was 1700 nM.

How did the IC50 turn out when CC[C@H](C)OC(=O)C1=C(C)NC(C)=C(C(=O)OC)C1c1csc2ccncc12 (stereo partly drawn) [Example 40, 1,4-Dihydro-2,6-dimethyl-4-thieno[3,2-c]pyridin-3-yl-3,5-pyridinedicarboxylic acid, methyl(S)-1-methylpropyl ester] was run?
Its IC50 is 33.1 nM.

With COC(=O)C1=C(C)NC(C)=C(C(=O)OCCC#N)C1c1csc2ccccc12 (centres unmarked) [Example 35, 4-Benzo[b]thien-3-yl-1,4-dihydro-2,6-dimethyl-3,5-pyridinecarboxylic acid, 2-cyanoethyl methyl ester] as the molecule, how does the IC50 read?
The IC50 was 251 nM.

With C#CCOC(=O)C1=C(C)NC(C)=C(C(=O)OC)C1c1csc2ccncc12 (centres unmarked) [Example 48, 1,4-Dihydro-2,6-dimethyl-4-thieno[3,2-c]pyridin-3-yl-3,5-pyridinedicarboxylic acid, methyl 2-propynyl ester] as the molecule, how does the IC50 read?
Its IC50 is 91.2 nM.

For COCCOC(=O)C1=C(C)NC(C)=C(C(=O)OC(C)C)C1c1csc2ccccc12 (centres unmarked) [Example 39, 4-Benzo[b]thien-3-yl-1,4-dihydro-2,6-dimethyl-3,5-pyridinedicarboxylic acid, 2-methoxyethyl 1-methylethyl ester], which IC50 is on record?
Its IC50 is 891 nM.

With C=CCOC(=O)C1=C(C)NC(C)=C(C(=O)OC)C1c1csc2ccncc12 (centres unmarked) [Example 50, 1,4-Dihydro-2,6-dimethyl-4-thieno[3,2-c]pyridin-3-yl-3,5-pyridinecarboxylic acid, methyl 2-propenyl ester] as the molecule, how does the IC50 read?
The IC50 was 40.7 nM.

For COCCOC(=O)C1=C(C)NC(C)=C(C(=O)OC(C)C)C1c1csc2ccncc12 (centres unmarked) [Example 37, 1,4-Dihydro-2,6-dimethyl-4-thieno[3,2-c]pyridin-3-yl-3,5-pyridinedicarboxylic acid, 2-methoxyethyl 1-methylethyl ester], which IC50 is on record?
Its IC50 is 166 nM.

How did the IC50 turn out when CCC(C)OC(=O)C1=C(C)NC(C)=C(C(=O)OC)[C@H]1c1csc2ccncc12 (stereo partly drawn) [Example 42, (R)-1,4-Dihydro-2,6-dimethyl-4-thieno[3,2-c]pyridin-3-yl-3,5-pyridinedicarboxylic acid, methyl 1-methylpropyl ester] was run?
Its IC50 is 81.3 nM.

Which IC50 does the source give for CCOC(=O)C1=C(C)NC(C)=C(C(=O)OCC)C1c1csc2ccc([N+](=O)[O-])cc12 [Example 26, 1,4-Dihydro-2,6-dimethyl-4-(5-nitrobenzo[b]thien-3-yl)-3,5-pyridinedicarboxylic acid, diethyl ester] here?
Its IC50 is 229 nM.

CCOC(=O)C1=C(C)NC(C)=C(C(=O)OCC)C1c1cc2ccccc2s1 [Example 1, 4-Benzo[b]thien-2-yl-1,4-dihydro-2,6-dimethyl-3,5-pyridinedicarboxylic acid, diethyl ester] was tested. Which IC50 did it give?
The IC50 was 110000 nM.

Which IC50 does the source give for CCOC(=O)C1=C(C)NC(C)=C(C(=O)OCC)C1c1nccc2ccsc12 [Example 24, 1,4-Dihydro-2,6-dimethyl-4-thieno[2,3-c]pyridin-7-yl-3,5-pyridinedicarboxylic acid, diethyl ester] here?
The IC50 was 83.2 nM.

COC(=O)C1=C(C)NC(C)=C(C(=O)OC(C)C)C1c1csc2ccccc12 (centres unmarked) [Example 38, 4-Benzo[b]thien-3-yl-1,4-dihydro-2,6-dimethyl-3,5-pyridinedicarboxylic acid, methyl 1-methylethyl ester] was tested. Which IC50 did it give?
Its IC50 is 251 nM.

For COC(=O)C1=C(C)NC(C)=C(C(=O)OCC2CC2)C1c1csc2cnccc12 (centres unmarked) [Example 44, 1,4-Dihydro-2,6-dimethyl-4-thieno[2,3-c]pyridin-3-yl-3,5-pyridinedicarboxylic acid, cyclopropylmethyl methyl ester], which IC50 is on record?
The IC50 was 70.8 nM.

CCOC(=O)C1=C(C)NC(C)=C(C(=O)OCC)C1c1c(C)sc2ccccc12 [Example 16, 1,4-Dihydro-2,6-dimethyl-4-(2-methylbenzo[b]thien-3-yl)-3,5-pyridinedicarboxylic acid, diethyl ester] was tested. Which IC50 did it give?
Its IC50 is 407 nM.

For CCOC(=O)C1=C(C)NC(C)=C(C(=O)OCC)C1c1csc2ncccc12 [Example 13, 1,4-Dihydro-2,6-dimethyl-4-thieno[2,3-b]pyridin-3-yl-3,5-pyridinedicarboxylic acid, diethyl ester], which IC50 is on record?
The IC50 was 871 nM.

How did the IC50 turn out when COC(=O)C1=C(C)NC(C)=C(C(=O)OCC2CC2)C1c1csc2ccncc12 (centres unmarked) [Example 51, 1,4-Dihydro-2,6-dimethyl-4-thieno[3,2-c]pyridin-3-yl-3,5-pyridinedicarboxylic acid, cyclopropylmethyl methyl ester] was run?
The IC50 was 7.59 nM.

Which IC50 does the source give for CCOC(=O)C1=C(C)NC(C)=C(C(=O)OCC)C1c1csc2ccc(Cl)cc12 [Example 4, 4-(5-Chlorobenzo[b]thien-3-yl)-1,4-dihydro-2,6-dimethyl-3,5-pyridinedicarboxylic acid, diethyl ester] here?
The IC50 was 3160 nM.

For CCOC(=O)C1=C(C)NC(C)=C(C(=O)OCC)C1c1cc2cnccc2s1 [Example 2, 1,4-Dihydro-2,6-dimethyl-4-(thieno[3,2-c]pyridin-2-yl)-3,5-pyridinedicarboxylic acid, diethyl ester], which IC50 is on record?
Its IC50 is 10700 nM.

With CCOC(=O)C1=C(C)NC(C)=C(C(=O)OCC)C1c1csc2cccnc12 [Example 11, 1,4-Dihydro-2,6-dimethyl-4-thieno[3,2-b]pyridin-3-yl-3,5-pyridinedicarboxylic acid, diethyl ester] as the molecule, how does the IC50 read?
The IC50 was 126 nM.

COC(=O)C1=C(C)NC(C)=C(C(=O)OC(C)C)C1c1csc2ccncc12 (centres unmarked) [Example 20, 1,4-Dihydro-2,6-dimethyl-4-thieno[3,2-c]pyridin-3-yl-3,5-pyridinedicarboxylic acid, 3-methyl 5-isopropyl ester] was tested. Which IC50 did it give?
Its IC50 is 15.8 nM.

How did the IC50 turn out when COCCOC(=O)C1=C(C)NC(C)=C(C(=O)OCCOC)C1c1csc2ccncc12 [Example 8, 1,4-Dihydro-2,6-dimethyl-4-thieno[3,2-c]pyridin-3-yl-3,5-pyridinedicarboxylic acid, bis(2-methoxyethyl)ester] was run?
Its IC50 is 501 nM.

With CCOC(=O)C1=C(C)NC(C)=C(C(=O)OCC)C1c1csc2cnccc12 [Example 12, 1,4-Dihydro-2,6-dimethyl-4-thieno[2,3-c]pyridin-3-yl-3,5-pyridinedicarboxylic acid, diethyl ester] as the molecule, how does the IC50 read?
The IC50 was 40.7 nM.

CCOC(=O)C1=C(C)NC(C)=C(C(=O)OCC)C1c1cccc2sccc12 [Example 55, 4-(Benzo[b]thien-4-yl)-1,4-dihydro-2,6-dimethyl-3,5-pyridinedicarboxylic a cid, diethyl ester] was tested. Which IC50 did it give?
Its IC50 is 151 nM.

With COC(=O)C1=C(C)NC(C)=C(C(=O)OCCN(C)Cc2ccccc2)C1c1csc2ccncc12 (centres unmarked) [Example 31, 1,4-Dihydro-2,6-dimethyl-4-thieno[3,2-c]pyridin-3-yl-3,5-pyridine dicarboxylic acid, 3-methyl 5-(2-[methyl(phenylmethyl)amino]ethyl)ester] as the molecule, how does the IC50 read?
The IC50 was 126 nM.

With CCOC(=O)C1=C(C)NC(C)=C(C(=O)OCCN(C)Cc2ccccc2)C1c1csc2ccccc12 (centres unmarked) [Example 18, 4-Benzo[b]thien-3-yl-1,4-dihydro-2,6-dimethyl-3,5-pyridinedicarboxylic acid, 3-ethyl 5-(2-[methyl(phenylmethyl)amino]ethyl)ester] as the molecule, how does the IC50 read?
Its IC50 is 3470 nM.

Which IC50 does the source give for CCOC(=O)C1=C(C)NC(C)=C(C(=O)OCC)C1c1csc2cc([N+](=O)[O-])ccc12 [Example 27, 1,4-Dihydro-2,6-dimethyl-4-(6-nitrobenzo[b]thien-3-yl)-3,5-pyridinedicarboxylic acid, diethyl ester] here?
The IC50 was 204 nM.

Which IC50 does the source give for CCCCOC(=O)C1=C(C)NC(C)=C(C(=O)OCCCC)C1c1csc2ccncc12 [Example 53, 1,4-Dihydro-2,6-dimethyl-4-thieno[3,2-c]pyridin-3-yl-3,5-pyridinedicarboxylic acid, dibutyl ester] here?
The IC50 was 1070 nM.

Same assay, conditions: coronary artery rings contracted with 50 mM KCl, 37° C.; IC50 = 50% relaxation; mean values, probit analysis

CCOC(=O)C1=C(C)NC(C)=C(C(=O)OCC)C1c1csc2ccncc12 [Example 52, 1,4-Dihydro-2,6-dimethyl-4-thieno[3,2-c]pyridin-3-yl-3,5-pyridinedicarboxylic acid, diethyl ester] was tested. Which “-log IC50” value did it give?
The value was 6.94.

Which “-log IC50” value does the source give for CCOC(=O)C1=C(C)NC(C)=C(C(=O)OCC)C1c1nccc2ccsc12 [Example 54, 1,4-Dihydro-2,6-dimethyl-4-thieno[2,3-c]pyridin-7-yl-3,5-pyridinedicarboxylic acid, diethyl ester] here?
The value was 7.1.

For CCOC(=O)C1=C(C)NC(C)=C(C(=O)OCC)C1c1csc2ccncc12 [Example 5, 1,4-Dihydro-2,6-dimethyl-4-thieno[3,2-c]pyridin-3-yl-3,5-pyridinedicarboxylic acid, diethyl ester], which “-log IC50” value is on record?
Its value is 7.55.

How did the “-log IC50” value turn out when CCC(C)OC(=O)C1=C(C)NC(C)=C(C(=O)OC)[C@@H]1c1csc2ccccc12 (stereo partly drawn) [Example 36, (S)-4-benzo[b]thien-3-yl-1,4-dihydro-2,6-dimethyl-3,5-pyridinedicarboxylicacid, methyl 1-methylpropyl ester] was run?
The value was 5.7.
